Here are results for 27 compounds from PubChem BioAssay (NCI).

Common to all, as to experiment: DTP human tumour cell line panel, 48 h
Experiment [1] concerns EKVX NSCLC.
For experiment [2], the system named is IGROV1 ovarian.
Experiment [3] concerns KM12 colon.
For experiment [4], the system named is MOLT-4 leukemia.
Experiment [5] relates to NCI-H226 lung.
Experiment [6] concerns PC-3 prostate.
In experiment [7] the test system is RXF 393 renal.
For experiment [8], the system named is SK-OV-3 ovarian.
For experiment [9], the system named is SW-620 colon.
The test system of experiment [10] is SF-539 CNS.

Each structure is given as a SMILES string.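 In this assay, cells in 96-well plates receive the compound at five concentrations for 48 hours. Endpoints are linearly interpolated between the surrounding concentrations. Here, GI50 denotes the concentration required for 50% inhibition of growth. TGI marks complete inhibition of growth.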 Where a SMILES comes first, the peptide text is derived from it. [ ]: non-standard residue; d: D form. The star is where a group is joined. Cbz = O=C(OCc1ccccc1)*; Aib = CC(C)(N)C(=O)O; OBn = c1ccc(CO*)cc1

For `CC1OC(O[C@H]2C3C=CO[C@@H](OC4OC(CO)C(O)C(O)C4O)C3[C@@]3(COC(=O)/C=C/c4ccccc4)O[C@@H]23)C(O)C(O)C1O` (stereo not given in full), the TGI in experiment [1], in experiment [2], in experiment [3], in [4], in [5] and in experiment [6] was over 100 µM each time. Also, the TGI in [7], in [8] and in [9] was over 100 µM in each case.
Consider `CN1CCN(Cc2cc3c(nn2)-c2ccccc2C3=O)CC1`, for which the TGI in experiment [1], in experiment [2], in [3], in experiment [4], in [5] and in [6] was over 100 µM in each case. The TGI in experiment [7], in experiment [10], in experiment [8] and in experiment [9] was over 100 µM in each case.
`CC(NC(=O)C(C)(C)NC(=O)C(CC(=O)OCc1ccccc1)NC(=O)OCc1ccccc1)C(N)=O` (stereo not given) (Cbz-Asp(OBn)-[Aib]-Ala-NH2; configuration not given here): the TGI in [1], in experiment [2], in experiment [3], in experiment [4], in experiment [5] and in experiment [6] was over 100 µM in each case. For the same compound, the TGI in [7], in experiment [10], in experiment [8] and in [9] was over 100 µM in each case.
Consider `CCOC(=O)c1c2cccccc-2nc1Nc1cccc2c(C)ccnc12`, for which the TGI in [1], in [2], in experiment [3], in experiment [4], in experiment [5] and in experiment [6] was over 10 µM in each case. Moreover, the TGI in experiment [7], in [10], in experiment [8] and in [9] was over 10 µM throughout.
Turning to `C/C1=C\[C@H](C)C[C@H](C)OC(=O)[C@H](C)NC(=O)[C@@H](Cc2ccc(O)c(Br)c2)N(C)C(=O)[C@H](C)NC(=O)[C@@H](C)C1`, the TGI (commonly the concentration at which net growth stops) was over 4.7 µM in experiment [1]; 0.105 µM in experiment [2]; over 25 µM in experiment [3]; over 19.5 µM in [4]; 0.787 µM in [5]; 24.6 µM in experiment [6]. Also, the TGI in experiment [7] was 0.858 µM; in experiment [10], 0.117 µM; in [8], 2.04 µM; in experiment [9] it was over 25 µM.
For the compound `CSc1nc2c(c(N(C)C)n1)C(O)n1c(nc3ccccc31)S2` (stereo not given), the TGI in experiment [1], in [2], in experiment [3], in experiment [4], in [5] and in [6] was over 100 µM throughout. The TGI in experiment [7] is 65.3 µM; in experiment [10], 77.2 µM; in [8], 43.6 µM; in [9], over 100 µM.
In the case of `CCOC(=O)/C(C(C)=O)=C(\OC(C)=O)c1ccncc1C(=O)O`, the TGI in experiment [1], in experiment [2], in experiment [3], in experiment [4], in experiment [5] and in experiment [6] was over 100 µM throughout. In addition, the TGI in experiment [7], in [10], in experiment [8] and in experiment [9] was over 100 µM throughout.
Take `CO/N=C(/C(=O)OC)c1ccccc1COc1ccccc1C(F)(F)F`: the TGI is 62.9 µM in [1]; over 100 µM in experiment [2]; over 100 µM in experiment [3]; over 100 µM in experiment [4]; over 100 µM in experiment [5]; over 100 µM in experiment [6]. The TGI in experiment [7] was over 100 µM; in experiment [10] it was 59.2 µM; in [8], 91.8 µM.
Turning to `C=CCn1c(=O)ccn(/C(=C/C(=O)OCC)C(=O)OCC)c1=O`, the TGI in [1] is 38.2 µM; in experiment [2] it was 29.7 µM; in experiment [3], 32.9 µM; in experiment [4], 10.3 µM; in experiment [5], over 31.6 µM; in experiment [6], 27.9 µM. Moreover, the TGI worked out at 28.5 µM in experiment [7], 49.5 µM in [10], 74.3 µM in [8] and 6.57 µM in experiment [9].
Regarding `COC1OC2COC(c3ccccc3)OC2C(O)C1OC(=S)c1ccccc1` (stereo not given), the TGI in experiment [1] was 51.7 µM; in experiment [2], over 100 µM; in experiment [4] it was over 100 µM; in experiment [5], over 100 µM; in [6] it was 57.2 µM; in [7] it was over 100 µM. Also, the values for the TGI in experiment [10], in [8] and in [9] were 87.1 µM, over 100 µM and over 100 µM, respectively.
With `CC(C)N1CCN(c2ccc(OCC3COC(Cn4cncn4)(c4ccc(Cl)cc4Cl)O3)cc2)CC1` (stereo not given), the TGI in experiment [1] came out at 30.6 µM; in experiment [2], 33.6 µM; in experiment [3] it was 28.8 µM; in experiment [4], 28.8 µM; in experiment [5] it was 30.1 µM; in experiment [6], 35.1 µM. Further, the TGI in experiment [7] worked out at 25 µM; in experiment [10], 27.3 µM; in experiment [8] it was 28.9 µM; in experiment [9] it was 37.4 µM.
As for `O=C1C(=Nc2ccc(Nc3ccccc3)cc2)Oc2ccccc21`, the TGI in experiment [1] came out at 27.7 µM; in [2], 5.96 µM; in experiment [3] it was 4.03 µM; in experiment [4], 6.39 µM; in experiment [5], 16.8 µM; in experiment [6], 8.58 µM. Further, the TGI came to 4.89 µM in [7], 8.41 µM in experiment [10], 23 µM in [8] and 4.67 µM in experiment [9].
For `Cc1cc(N(C)C)c2ccccc2[n+]1CCCCCCCCCC[n+]1c(C)cc(N(C)C)c2ccccc21`, the TGI in experiment [1] was 35.3 µM; in experiment [2], over 20.6 µM; in experiment [3] it was 1.61 µM; in [4] it was 13.8 µM; in [5], over 100 µM; in [6], 7.48 µM. Also, the TGI in [7] came to 35 µM; in [10] it was 8.15 µM; in experiment [8], 5.81 µM; in experiment [9], 16.5 µM.
Turning to `N#CC(c1ccccc1)N(CCOCCOCCN(C(=O)c1ccccc1)C(C#N)c1ccccc1)C(=O)c1ccccc1` (stereo not given), the TGI in [1], in [2], in experiment [3], in experiment [4], in experiment [5] and in [6] was over 100 µM throughout. Besides, the TGI in [7], in experiment [10], in experiment [8] and in [9] was over 100 µM throughout.
Turning to `CC1(C)C=CC(=O)C(O)C(C)(C)C1=O` (stereo not given), the TGI was over 100 µM in experiment [1]; over 100 µM in experiment [2]; over 100 µM in experiment [3]; 69.7 µM in [4]; over 100 µM in experiment [5]; over 100 µM in [6]. In addition, the TGI in experiment [7], in experiment [10], in experiment [8] and in experiment [9] was over 100 µM each time.
Consider `Cc1ccc(/C=C2/N=C(N/N=C\C(O)C(O)C(O)C(O)CO)NC2=O)cc1` (stereo not given), for which the TGI in experiment [1], in [2], in experiment [3], in experiment [4], in experiment [5] and in experiment [6] was over 100 µM each time. Further, the TGI in experiment [7], in experiment [10], in [8] and in experiment [9] was over 100 µM in each case. In addition, the GI50 (as a rule, the concentration that inhibits growth by half) in experiment [4] is 70.1 µM.
As for `CC(C)Oc1cccc(N2C(=NCc3c[nH]c4ccccc34)Nc3ccncc3S2(=O)=O)c1`, the TGI in experiment [1] was 79 µM; in [2] it was over 100 µM; in [3], over 100 µM; in experiment [4] it was 96.7 µM; in [5], over 100 µM; in experiment [6], 83.4 µM. Besides, the TGI in experiment [7], in [10], in experiment [8] and in experiment [9] was over 100 µM each time.
On to `COc1cc(O)c2c(=O)c(OC)c(-c3ccc(OC)c(O)c3)oc2c1`, for which the TGI in experiment [1], in [2], in experiment [3], in experiment [4], in [5] and in experiment [6] was over 100 µM throughout. Besides, the TGI in experiment [7], in experiment [10], in [8] and in [9] was over 100 µM throughout.
On to `Nc1ncc2c(n1)-c1ccccc1OC2N1CCCC1` (stereo not given), for which the TGI in experiment [1], in experiment [2], in experiment [3], in experiment [4], in experiment [5] and in experiment [6] was over 100 µM throughout. The TGI in [7], in experiment [10], in experiment [8] and in [9] was over 100 µM in each case.
`COc1ccc(C(=O)NCCN(C)C)c2nc3ccccc3cc12`: the TGI in experiment [1] stood at 6.68 µM; in experiment [2], 6.18 µM; in experiment [3], 7.79 µM; in experiment [4], 22.6 µM; in experiment [5], 3.26 µM; in experiment [6], 4.82 µM. Further, the TGI was 6.67 µM in experiment [7], 8.16 µM in [10], 8.69 µM in [8] and 5.06 µM in experiment [9].
Consider `O=C1c2cccc3cccc(c23)C(=O)N1CCCNCCCCNCCCNCCCN1C(=O)c2cccc3cccc(c23)C1=O`, for which the TGI in [1] was found to be 5.67 µM; in experiment [2], 3.41 µM; in experiment [3], 1.83 µM; in experiment [5] it was 2.15 µM; in experiment [6], 1.76 µM; in experiment [7], 1.44 µM. Further, the TGI came out at 1.94 µM in experiment [10], 3.42 µM in experiment [8] and 4.35 µM in experiment [9].
Take `CC1=C(C#N)c2nc3ccccc3n2C(=O)C1(C)CCO` (stereo not given): the TGI in experiment [1], in experiment [2], in experiment [5], in experiment [6], in experiment [7] and in experiment [10] was over 100 µM throughout. The TGI in [8] and in [9] was over 100 µM throughout.
Turning to `c1ccc(C(C(=Nc2ccc(Cc3ccc(N=C(C(c4ccccc4)c4ccccc4)N4CC4)cc3)cc2)N2CC2)c2ccccc2)cc1`, the TGI in experiment [1] was found to be 25.9 µM; in [2], 2.41 µM; in [3] it was 24.5 µM; in [5], 38.3 µM; in experiment [6], 22.6 µM; in [7], 16.1 µM. Besides, the TGI in experiment [10] was 37.8 µM; in experiment [8], 11.1 µM; in experiment [9], 20.1 µM.
`O=c1onc2n1-c1cc(Cl)ccc1C(=S)N1CSCC21` (stereo not given): the TGI in experiment [1], in experiment [2], in [3], in experiment [4], in experiment [5] and in experiment [6] was over 100 µM each time. The total growth inhibition concentration (TGI) in experiment [7], in [8] and in [9] was over 100 µM throughout.
Regarding `[N-]=[N+]=CC(=O)OC(CCl)CCl`, the TGI in experiment [1], in [2], in experiment [3], in experiment [4], in experiment [5] and in [6] was over 100 µM throughout. Besides, the TGI in [7], in [8] and in experiment [9] was over 100 µM in each case.
Regarding `Cn1c2ccccc2c2c(=S)c3ccccc3ccc21`, the TGI in experiment [1], in experiment [2], in experiment [3], in experiment [4], in experiment [5] and in experiment [6] was over 100 µM each time. The TGI in [7], in experiment [8] and in experiment [9] was over 100 µM each time.
Turning to `Cc1ccsc1/C=N/Nc1cnccn1`, the total growth inhibition concentration (TGI) in experiment [1], in experiment [2], in experiment [3], in experiment [4], in experiment [5] and in experiment [6] was over 100 µM each time. Also, the total growth inhibition concentration (TGI) in experiment [7], in experiment [8] and in [9] was over 100 µM throughout.
